According to PMC7918733, “Biological Profiling of Semisynthetic C19-Functionalized Ferruginol and Sugiol Analogues” (Antibiotics, 2021):
Where two headings read alike, the source gives them in different places.

Legend:
[1] = tested on: WiDr (Colon); conditions: cited from earlier work
[2] = tested on: A549 (Lung); conditions: cited from earlier work
[3] = tested on: HBL-100 (Breast); conditions: cited from earlier work
[4] = tested on: L. guyanensis promastigotes; parameters: method as in PMID 30840453; conditions: C18-congeners, cited from earlier work; for IC50: read-out: L. guyanensis IC50 ± SD
[5] = tested on: Macrophages J774; conditions: cited from earlier work
[6] = tested on: T-47D (Breast); conditions: cited from earlier work
[7] = target: T1, GABAA receptor subtype (α1β2γ2S) (Homo sapiens, UniProt P14867+P18507+P47870); parameters: expressed in transfected cells; host or cells: Xenopus laevis oocytes; conditions: cited from earlier work
[8] = tested on: HeLa (Cervix); conditions: cited from earlier work
[9] = tested on: SW1573 (Lung); conditions: cited from earlier work
[10] = tested on: L. donovani promastigotes; conditions: C18-congeners, read-out: L. donovani IC50 ± SD; cited from earlier work
[11] = tested on: L. infantum promastigotes; parameters: method as in PMID 30840453; conditions: C18-congeners, read-out: L. infantum IC50 ± SD; cited from earlier work
[12] = tested on: L. amazonensis promastigotes; parameters: method as in PMID 30840453; conditions: C18-congeners, read-out: L. amazonensis IC50 ± SD; cited from earlier work
[13] = target: T1, GABAA receptor subtype (α1β2γ2S); assay: Two-microelectrode voltage-clamp in Xenopus laevis oocytes
Protocol: All molecules were tested at concentrations of 10, 100 μM and compared with dehydroabietic acid (DHA) (3) as a reference [16].

[14] = tested on: BJ; assay: Cytotoxicity on mammalian cell lines; format: cell-based; conditions: Homo sapiens, read-out: BJ EC50
Protocol: (§1) Assays were performed by using previously described DNA stain-based assay and methods, including cytotoxicity assays.

[15] = tested on: RAJI; assay: Cytotoxicity on mammalian cell lines; format: cell-based; conditions: Homo sapiens, read-out: RAJI EC50
Protocol: as §1

[16] = tested on: HepG2; assay: Cytotoxicity on mammalian cell lines; format: cell-based; conditions: Homo sapiens, HepG2; read-out: HepG2 EC50
Protocol: as §1

[17] = tested on: HEK293; assay: Cytotoxicity on mammalian cell lines; format: cell-based; conditions: Homo sapiens, HEK293; read-out: HEK293 EC50
Protocol: as §1

[18] = tested on: WiDr (Colon); assay: Antiproliferative SRB assay; format: cell-based, human; conditions: Homo sapiens, WiDr, mean ± SD of at least two experiments
Protocol: (§2) Cells, cultures and the activity test of abietane analogs followed reported methods. The SRB assay was performed as previously described, and the antiproliferative activity was given as GI50 values, which were calculated according to NCI formulas.

[19] = tested on: SW1573 (Lung); assay: Antiproliferative SRB assay; format: cell-based, human; conditions: Homo sapiens, SW1573, mean ± SD of at least two experiments
Protocol: as §2

[20] = tested on: A549 (Lung); assay: Antiproliferative SRB assay; format: cell-based, human; conditions: Homo sapiens, A549, mean ± SD of at least two experiments
Protocol: as §2

[21] = tested on: P. falciparum K1 strain; assay: Antiplasmodial DNA stain-based growth assay; format: cell-based; conditions: Plasmodium falciparum, K1; chloroquine-resistant strain; 72 h incubation; read-out: P. falciparum K1 EC50
Protocol: as §1

[22] = tested on: P. falciparum 3D7 strain; assay: Antiplasmodial DNA stain-based growth assay; format: cell-based; conditions: Plasmodium falciparum, 3D7; chloroquine-sensitive strain; 72 h incubation; read-out: P. falciparum 3D7 EC50
Protocol: as §1

[23] = in vitro; conditions: mouse, Macrophages J774 CC50
Protocol: The compounds were additionally studied in a panel of mammalian cell lines to determine cytotoxicity.
The parasites, culture procedure and the activity of functionalized abietane analogs on Leishmania promastigotes were performed according to the method previously reported by us [28], while the intracellular amastigote assay was performed on L. amazonensis and L. infantum according to the fluorometric test [29]. The J774 cell culture and the cytotoxicity assay was carried out according to our previously described method [30].

[24] = tested on: HeLa (Cervix); assay: Antiproliferative SRB assay; format: cell-based; conditions: Homo sapiens, mean ± SD of at least two experiments
Protocol: as §2

[25] = tested on: HBL-100 (Breast); assay: Antiproliferative SRB assay; format: cell-based; conditions: Homo sapiens, mean ± SD of at least two experiments
Protocol: as §2

[26] = tested on: T-47D (Breast); assay: Antiproliferative SRB assay; format: cell-based; conditions: Homo sapiens, T47D, mean ± SD of at least two experiments
Protocol: as §2

[27] = read-out: Macrophages J774 CC50, C18-congeners

T1 sequence (P14867 28-456): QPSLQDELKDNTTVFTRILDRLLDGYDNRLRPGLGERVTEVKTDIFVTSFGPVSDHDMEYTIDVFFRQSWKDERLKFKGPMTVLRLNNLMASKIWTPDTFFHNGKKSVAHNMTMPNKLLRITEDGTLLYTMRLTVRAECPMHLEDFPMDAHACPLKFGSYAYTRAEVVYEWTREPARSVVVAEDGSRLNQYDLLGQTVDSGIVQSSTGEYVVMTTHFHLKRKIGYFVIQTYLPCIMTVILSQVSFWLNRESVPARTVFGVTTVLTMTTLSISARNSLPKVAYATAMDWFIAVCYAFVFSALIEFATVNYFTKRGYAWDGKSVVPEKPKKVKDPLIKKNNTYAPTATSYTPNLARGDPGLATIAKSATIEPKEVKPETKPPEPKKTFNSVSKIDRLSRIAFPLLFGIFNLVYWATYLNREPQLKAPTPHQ
T1 sequence (P47870 26-512): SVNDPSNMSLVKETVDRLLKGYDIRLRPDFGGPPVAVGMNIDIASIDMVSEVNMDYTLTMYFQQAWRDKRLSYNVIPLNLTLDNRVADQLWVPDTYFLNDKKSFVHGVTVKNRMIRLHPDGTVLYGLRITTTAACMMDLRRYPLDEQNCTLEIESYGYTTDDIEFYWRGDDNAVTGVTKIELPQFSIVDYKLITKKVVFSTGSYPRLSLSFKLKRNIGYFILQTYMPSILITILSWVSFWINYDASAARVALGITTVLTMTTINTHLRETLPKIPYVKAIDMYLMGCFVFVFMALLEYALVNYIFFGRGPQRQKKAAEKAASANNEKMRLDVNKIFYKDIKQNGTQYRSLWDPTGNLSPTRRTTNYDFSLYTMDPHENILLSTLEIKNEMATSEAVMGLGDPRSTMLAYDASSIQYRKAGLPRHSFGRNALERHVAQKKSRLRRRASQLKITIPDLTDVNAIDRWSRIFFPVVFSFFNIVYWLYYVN
T1 sequence (P18507 40-467 isoform P18507-1 limits assumed): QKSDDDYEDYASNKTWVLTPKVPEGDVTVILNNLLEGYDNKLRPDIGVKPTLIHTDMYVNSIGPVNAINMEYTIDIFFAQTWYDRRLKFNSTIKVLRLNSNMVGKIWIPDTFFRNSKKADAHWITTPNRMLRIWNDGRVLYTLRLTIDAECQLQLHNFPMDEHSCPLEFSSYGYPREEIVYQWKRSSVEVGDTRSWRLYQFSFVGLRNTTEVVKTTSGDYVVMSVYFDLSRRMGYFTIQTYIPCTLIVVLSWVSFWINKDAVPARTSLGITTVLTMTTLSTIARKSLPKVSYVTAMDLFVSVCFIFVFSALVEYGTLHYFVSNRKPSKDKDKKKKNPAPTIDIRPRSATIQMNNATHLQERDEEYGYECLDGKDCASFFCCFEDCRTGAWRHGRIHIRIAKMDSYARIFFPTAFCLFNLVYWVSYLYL

Row | SMILES | GI50 ([1]; C18-congeners) [µM] | GI50 ([2]; C18-congeners) [µM] | GI50 ([3]; C18-congeners) [µM] | GI50 ([6]; C18-congeners) [µM] | IGABA Potentiation of 10 µM (%) ([7]; C18-congeners) | IGABA Potentiation of 100 µM (%) ([7]; C18-congeners) | GI50 ([8]; C18-congeners) [µM] | GI50 ([9]; C18-congeners) [µM] | IC50 [10] [µM] | IC50 [11] [µM] | IC50 [12] [µM] | IC50 [4] [µM] | CC50 [5, 27] [µM] | further results
1 | CC(C)c1cc2c(cc1O)C1(C)CCCC(C)(C(=O)O)C1CC2=O (single isomer, unassigned; (+)) [Compound 8b, (+)-liquiditerpenoic acid A] | > 100 | > 100 | > 100 | > 100 | −2.2 ± 4.4 | −21.1 ± 7.1 | 85 ± 21 | > 100 |  |  |  |  |  | L. guyanensis IC50 ± SD [4]: inactive; CC50 [5]: 219 ± 15 µM
2 | CC(C)c1cc2c(cc1O)[C@@]1(C)CCC[C@@](C)(CO)[C@@H]1CC2 [Compound 14b] | 17 ± 1.3 | 12 ± 1.9 | 16 ± 2 | 16 ± 0.9 | 29.3 ± 10.6 | 154.1 ± 34.2 | 12 ± 1.8 | 15 ± 2.8 | 13.9 ± 0.1 | 0.7 ± 0.1 | 7.7 ± 0.8 | 12.5 ± 2.2 | 23.4 ± 4.6 | 
3 | COC(=O)[C@@]1(C)CCC[C@]2(C)c3ccc(C(C)C)cc3CC[C@@H]12 [Compound 7, methyl callitrisate] |  |  |  |  |  |  |  |  |  |  |  |  |  | GI50 [1]: 6.4 ± 2.1 µM; GI50 [2]: 10 ± 1.9 µM; GI50 [3]: 14 ± 5 µM; GI50 [6]: 8.8 ± 2.7 µM; GI50 [8]: 16 ± 2.5 µM; GI50 [9]: 17 ± 2.2 µM
4 | CC(C)c1cc2c(cc1O)[C@@]1(C)CCC[C@@](C)(CO)[C@@H]1CC2=O [Compound 15b] | 19 ± 2.1 | 19 ± 3.3 | 16 ± 2 | 20 ± 2.7 | 4.5 ± 5.8 | −30.3 ± 9.5 | 16 ± 2.4 | 23 ± 0.7 | 19.7 ± 0.4 | 9.7 ± 0.8 | 10.2 ± 0.6 | 16.5 ± 0.7 | 14.4 ± 2.8 | 
5 | COC(=O)[C@]1(C)CCC[C@]2(C)c3cc(OC(C)=O)c(C(C)C)cc3C(=O)C[C@@H]12 [Compound 11b] | 19 ± 1.7 | 14 ± 0.4 | 16 ± 1.5 | 20 ± 2.9 | −1.0 ± 2.8 | 46.7 ± 8.3 | 13 ± 2.3 | 17 ± 1.9 | 4.4 ± 0.5 | 0.7 ± 0.2 | 0.65 ± 0.03 | 1.3 ± 0.1 | 17.8 ± 2.8 | 
6 | CC(C)c1cc2c(cc1O)[C@@]1(C)CCC[C@@](C)(C(=O)O)C1CC2 (some centres unmarked) [Compound 13b, 12-hydroxydehydroabietic acid] | > 100 | 70 ± 6.3 | > 100 | > 100 | 8.9 ± 2.3 | 12.1 ± 2.9 | 96 ± 5.5 | 93 ± 9.3 | 58.1 ± 0.7 | 43.6 ± 3.4 | 54.1 ± 6.5 | 71.4 ± 1.5 | 85.8 ± 28.8 | 
7 | CC(C)c1cc2c(cc1O)[C@@]1(C)CCC[C@](C)(CO)[C@@H]1CC2=O [Compound 15, 19-hydroxysugiol] |  |  |  |  |  |  |  |  |  |  |  |  |  | IGABA Potentiation of 100 µM (%) ([13]; 100 µM, α1β2γ2S receptors): 238 ± 28%; activation at 10 µM ([13]; read-out: IGABA Potentiation of 10 µM (%)): 30 ± 14%; activation at 100 µM ([13]; read-out: IGABA Potentiation of 100 µM (%)): 238%; EC50 [14]: > 25 µM; EC50 [15]: > 25 µM; EC50 [16]: > 25 µM; EC50 [17]: > 25 µM; GI50 [18]: 17 ± 5 µM; GI50 [19]: 19 ± 3.3 µM; GI50 [20]: 10 ± 0.3 µM; EC50 [21]: 9.4 µM; EC50 [22]: > 15 µM; CC50 [23]: 50.1 ± 2.4 µM; GI50 [24]: 15 ± 1.1 µM; GI50 [25]: 17 ± 1.7 µM; GI50 [26]: 19 ± 1.1 µM
8 | CC(C)c1ccc2c(c1)CC[C@H]1[C@@](C)(C(=O)O)CCC[C@]21C [Compound 6, callitrisic acid] |  |  |  |  |  |  |  |  |  |  |  |  |  | IGABA Potentiation of 10 µM (%) [7]: 14 ± 5%; IGABA Potentiation of 100 µM (%) [7]: 269 ± 24%
9 | COc1cc([C@@H]2c3cc4c(cc3[C@@H](O[C@@H]3O[C@@H]5CO[C@@H](C)O[C@H]5[C@H](O)[C@H]3O)[C@H]3COC(=O)[C@H]23)OCO4)cc(OC)c1O [etoposide, reference compound] |  |  |  |  |  |  |  |  |  |  |  |  |  | GI50 [18]: 23 ± 3.1 µM; GI50 [19]: 15 ± 1.5 µM; GI50 [20]: 1.5 ± 0.3 µM; GI50 [24]: 3.3 ± 1.6 µM; GI50 [25]: 1.4 ± 0.1 µM; GI50 [26]: 22 ± 5.5 µM
